One test concerns the target T1, Mer (Homo sapiens, UniProt Q12866).
T1 construct: host or cells: 293A cells (Thermo Fisher #R70507)
T1 sequence (Q12866 21-999): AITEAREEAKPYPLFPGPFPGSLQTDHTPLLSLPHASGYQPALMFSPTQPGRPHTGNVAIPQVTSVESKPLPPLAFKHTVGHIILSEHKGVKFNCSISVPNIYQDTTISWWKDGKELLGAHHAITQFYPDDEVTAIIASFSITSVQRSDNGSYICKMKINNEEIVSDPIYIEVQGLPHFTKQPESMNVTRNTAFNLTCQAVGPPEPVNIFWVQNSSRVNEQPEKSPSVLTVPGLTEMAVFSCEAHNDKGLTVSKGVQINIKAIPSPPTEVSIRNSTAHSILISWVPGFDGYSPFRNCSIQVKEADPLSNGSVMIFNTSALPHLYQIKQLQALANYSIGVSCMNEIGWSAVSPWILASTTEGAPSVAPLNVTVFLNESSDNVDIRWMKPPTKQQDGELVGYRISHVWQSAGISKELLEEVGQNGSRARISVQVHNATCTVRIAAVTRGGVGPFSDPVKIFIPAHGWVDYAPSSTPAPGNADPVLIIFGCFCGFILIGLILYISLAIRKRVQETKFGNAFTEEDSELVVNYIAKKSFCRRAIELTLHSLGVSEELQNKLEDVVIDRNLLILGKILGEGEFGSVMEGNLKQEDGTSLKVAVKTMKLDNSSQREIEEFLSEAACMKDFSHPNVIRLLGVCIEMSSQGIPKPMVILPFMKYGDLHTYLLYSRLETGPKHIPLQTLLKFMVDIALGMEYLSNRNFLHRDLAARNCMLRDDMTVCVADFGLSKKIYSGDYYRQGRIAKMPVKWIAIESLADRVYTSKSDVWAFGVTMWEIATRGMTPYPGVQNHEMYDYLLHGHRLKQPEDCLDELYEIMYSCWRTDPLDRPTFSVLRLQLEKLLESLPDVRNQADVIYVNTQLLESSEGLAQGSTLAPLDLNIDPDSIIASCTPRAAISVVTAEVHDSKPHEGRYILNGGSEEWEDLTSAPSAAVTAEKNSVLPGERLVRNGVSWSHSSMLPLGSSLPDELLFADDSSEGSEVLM
In words: Mer autophosphorylation ELISA in transient transfected 293A cells. The format is cell-based. Particulars: Table 3 Cellular Activities; MERTK-transfected 293A cells, phospho-Mer ELISA. In outline: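 Phospho-Mer quantified by ELISA in lysates of transiently MERTK-transfected 293A cells after 1 h exposure to an 8-point compound series, serum-free, 0.3% DMSO. Activity normalized between DMSO-treated (100%) and reference inhibitor-treated (0%) lysates; IC50 via 4-parameter nonlinear regression.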
A general note: ELISA stands for enzyme-linked immunosorbent assay.

Another test deals with Met (Homo sapiens, UniProt P08581). Briefly: Met autophosphorylation ELISA in PC-3 cells. The format is cell-based. Particulars: Table 3 Cellular Activities, HGF-stimulated, phospho-Met ELISA, read-out: c-Met IC50. Set-up: endogenous in cells; host or cells: PC-3 prostate cancer cells (ATCC #CRL-1435). An outline of the steps: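 IC50 derived by 4-parameter logistic regression of phospho-Met (panTyr) sandwich ELISA signal, scaled between HGF-stimulated DMSO and reference-inhibitor lysates. PC-3 cells, serum-starved 3 h, received an 8-point compound series (0.3% DMSO) for 1 h before 10 min stimulation with 100 ng/mL human HGF.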
Chain of Met (P08581 25-1390): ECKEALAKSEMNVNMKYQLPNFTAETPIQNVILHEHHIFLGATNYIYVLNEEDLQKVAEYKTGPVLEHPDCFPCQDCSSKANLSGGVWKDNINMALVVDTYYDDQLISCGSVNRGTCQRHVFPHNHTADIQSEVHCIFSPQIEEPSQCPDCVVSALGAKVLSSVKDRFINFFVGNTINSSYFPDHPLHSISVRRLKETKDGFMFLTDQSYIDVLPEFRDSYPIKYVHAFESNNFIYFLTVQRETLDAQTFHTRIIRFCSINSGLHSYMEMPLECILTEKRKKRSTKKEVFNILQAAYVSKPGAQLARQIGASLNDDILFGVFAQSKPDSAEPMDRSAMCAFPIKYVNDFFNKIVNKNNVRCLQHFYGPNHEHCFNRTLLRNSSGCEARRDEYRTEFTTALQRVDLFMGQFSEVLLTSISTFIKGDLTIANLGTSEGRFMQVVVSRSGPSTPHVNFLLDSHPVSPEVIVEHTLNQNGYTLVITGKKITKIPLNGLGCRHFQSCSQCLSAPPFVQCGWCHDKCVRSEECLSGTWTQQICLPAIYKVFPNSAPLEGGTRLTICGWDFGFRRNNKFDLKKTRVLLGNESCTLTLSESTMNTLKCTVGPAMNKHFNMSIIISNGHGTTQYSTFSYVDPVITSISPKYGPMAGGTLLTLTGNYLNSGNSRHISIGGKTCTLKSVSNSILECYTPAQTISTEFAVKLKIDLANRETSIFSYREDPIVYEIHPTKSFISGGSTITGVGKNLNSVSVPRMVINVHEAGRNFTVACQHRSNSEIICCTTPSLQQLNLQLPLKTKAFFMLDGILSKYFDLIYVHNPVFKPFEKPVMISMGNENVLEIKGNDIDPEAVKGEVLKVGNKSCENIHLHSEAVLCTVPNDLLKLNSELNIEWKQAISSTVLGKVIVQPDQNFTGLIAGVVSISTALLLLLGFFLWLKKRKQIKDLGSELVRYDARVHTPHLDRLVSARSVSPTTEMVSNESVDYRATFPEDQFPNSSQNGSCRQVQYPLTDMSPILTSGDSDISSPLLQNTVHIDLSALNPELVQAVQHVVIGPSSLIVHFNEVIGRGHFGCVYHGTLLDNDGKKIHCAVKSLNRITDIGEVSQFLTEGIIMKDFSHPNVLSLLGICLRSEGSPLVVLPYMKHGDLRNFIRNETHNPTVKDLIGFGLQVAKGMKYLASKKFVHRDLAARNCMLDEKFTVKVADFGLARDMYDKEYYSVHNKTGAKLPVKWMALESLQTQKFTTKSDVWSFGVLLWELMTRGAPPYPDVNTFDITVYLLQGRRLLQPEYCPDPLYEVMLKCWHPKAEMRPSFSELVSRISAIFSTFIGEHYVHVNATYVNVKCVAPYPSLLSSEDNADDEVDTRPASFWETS

Structures can show the parent of a compound that is named as a salt. Where only a bound is given, the exact number is not on record here.

The IC50 is the point on the concentration scale where inhibition reaches its midpoint.

For `COc1cc2nccc(Oc3ccc(NC(=O)c4c5n(cc(-c6ccoc6)c4=O)CCOC5)cc3F)c2nc1OC` [Compound 306, N-[4-[(6,7-Dimethoxy-1,5-naphthyridin-4-yl)oxy]-3-fluorophenyl]-7-(furan-3-yl)-8-oxo-3,4-dihydro-1H-pyrido[2,1-c][1,4]oxazine-9-carboxamide], the concentration for half-maximal inhibition (IC50) at Mer and on Met was no more than 0.1 µM throughout.
On to `COc1cc2nccc(Oc3ccc(NC(=O)c4c(C)nc(C)c(-c5ccc(F)cn5)c4O)cc3F)c2nc1OC` [Compound 218, N-[4-[(6,7-Dimethoxy-1,5-naphthyridin-4-yl)oxy]-3-fluorophenyl]-5-(5-fluoropyridin-2-yl)-4-hydroxy-2,6-dimethylpyridine-3-carboxamide], for which the IC50 at Mer and at Met was no more than 0.1 µM throughout.
Turning to `COc1cc2nccc(Oc3ccc(NC(=O)c4cc(C#N)c(C)n(-c5ccc(F)cn5)c4=O)cc3F)c2nc1OC` [Compound 56, 5-Cyano-N-[4-[(6,7-dimethoxy-1,5-naphthyridin-4-yl)oxy]-3-fluorophenyl]-1-(5-fluoropyridin-2-yl)-6-methyl-2-oxopyridine-3-carboxamide], the half-maximal inhibitory concentration (IC50) on Mer and at Met was no more than 0.1 µM each time.
Consider `COc1cc2nccc(Oc3ccc(NC(=O)c4cc(C(C)=O)c(C)n(-c5ccco5)c4=O)cc3)c2nc1OC` [Compound 237, 5-Acetyl-N-[4-[(6,7-dimethoxy-1,5-naphthyridin-4-yl)oxy]phenyl]-1-(furan-2-yl)-6-methyl-2-oxopyridine-3-carboxamide], for which the values for the concentration for half-maximal inhibition (IC50) at Mer and at Met were no more than 0.1 µM and 0.3 to 1 µM, respectively.
As for `COCCOc1cc2nccc(Oc3ccc(NC(=O)c4c(C)n(C)c(C)c(-c5coc6ccccc56)c4=O)cc3F)c2nc1OC` [Compound 264, 5-(1-Benzofuran-3-yl)-N-[3-fluoro-4-[[6-methoxy-7-(2-methoxyethoxy)-1,5-naphthyridin-4-yl]oxy]phenyl]-1,2,6-trimethyl-4-oxopyridine-3-carboxamide], the half-inhibitory concentration (IC50) against Mer and on Met was no more than 0.1 µM each time.
For `COc1cnc2c(Oc3ccc(NC(=O)c4cc(C(C)=O)c(C)n(-c5ccoc5)c4=O)cc3F)ccnc2c1` [Compound 240, 5-Acetyl-N-[3-fluoro-4-[(7-methoxy-1,5-naphthyridin-4-yl)oxy]phenyl]-1-(furan-3-yl)-6-methyl-2-oxopyridine-3-carboxamide], the IC50 is no more than 0.1 µM at Mer and 0.3 to 1 µM on Met.
On the same counts, the results for `COc1cnc2c(Oc3ccc(NC(=O)c4cc(C(C)=O)c(C)n(-c5ccco5)c4=O)cc3F)ccnc2c1` [Compound 238, 5-Acetyl-N-[3-fluoro-4-[(7-methoxy-1,5-naphthyridin-4-yl)oxy]phenyl]-1-(furan-2-yl)-6-methyl-2-oxopyridine-3-carboxamide] are 0.3 to 1 µM and 0.3 to 1 µM.
On to `COc1cc2nccc(Oc3ccc(NC(=O)c4c(C)ncc(-c5cccnc5)c4O)cc3F)c2nc1OC` [Compound 228, N-[4-[(6,7-Dimethoxy-1,5-naphthyridin-4-yl)oxy]-3-fluorophenyl]-4-hydroxy-2-methyl-5-pyridin-3-ylpyridine-3-carboxamide], for which the IC50 against Mer and on Met was no more than 0.1 µM in each case.
With `COc1cc2nccc(Oc3ccc(NC(=O)c4c5n(cc(-c6ccc(C)s6)c4=O)CCOC5)cc3F)c2nc1OC` [Compound 304, N-[4-[(6,7-Dimethoxy-1,5-naphthyridin-4-yl)oxy]-3-fluorophenyl]-7-(5-methylthiophen-2-yl)-8-oxo-3,4-dihydro-1H-pyrido[2,1-c][1,4]oxazine-9-carboxamide], the IC50 against Mer and on Met was no more than 0.1 µM each time.
Take `COc1cc2nccc(Oc3ccc(NC(=O)c4c(C)n(C)c(C)c(-c5cc6ccccc6o5)c4=O)cc3F)c2nc1OC` [Compound 261, 5-(1-Benzofuran-2-yl)-N-[4-[(6,7-dimethoxy-1,5-naphthyridin-4-yl)oxy]-3-fluorophenyl]-1,2,6-trimethyl-4-oxopyridine-3-carboxamide]: the results for the concentration for half-maximal inhibition (IC50) against Mer and on Met were 0.1 to 0.3 µM and 0.3 to 1 µM, respectively.
The like results for `COCCOc1cc2nccc(Oc3ccc(NC(=O)c4c(C)n(C)c(C)c(-c5ccco5)c4=O)cc3F)c2nc1OC` [Compound 254, N-[3-Fluoro-4-[[6-methoxy-7-(2-methoxyethoxy)-1,5-naphthyridin-4-yl]oxy]phenyl]-5-(furan-2-yl)-1,2,6-trimethyl-4-oxopyridine-3-carboxamide] were, in that order, no more than 0.1 µM and no more than 0.1 µM.
Consider `Cc1ccc(C(=O)Nc2ccc(Oc3ccnc4cnc(Cl)cc34)c(F)c2)c(=O)n1-c1ccc(F)cn1` [Compound 54A, N-[4-[(6-Chloro-1,7-naphthyridin-4-yl)oxy]-3-fluorophenyl]-1-(5-fluoropyridin-2-yl)-6-methyl-2-oxopyridine-3-carboxamide], for which the IC50 on Mer and on Met was no more than 0.1 µM throughout.
With `COc1cc2nccc(Oc3ccc(NC(=O)c4cccn(-c5ccnc(O)c5)c4=O)cc3F)c2nc1OC` [Compound 248, N-[4-[(6,7-Dimethoxy-1,5-naphthyridin-4-yl)oxy]-3-fluorophenyl]-1-(2-hydroxypyridin-4-yl)-2-oxopyridine-3-carboxamide hydrochloride], the IC50 was 0.3 to 1 µM on Mer and no more than 0.1 µM at Met.
As for `COc1ccc2nccc(Oc3ccc(NC(=O)c4ccc(C)n(-c5ncc(F)cc5C)c4=O)cc3F)c2n1` [Compound 53, N-[3-Fluoro-4-[(6-methoxy-1,5-naphthyridin-4-yl)oxy]phenyl]-1-(5-fluoro-3-methylpyridin-2-yl)-6-methyl-2-oxopyridine-3-carboxamide], the half-inhibitory concentration (IC50) on Mer and on Met was no more than 0.1 µM throughout.
Take `COc1cc2nccc(Oc3ccc(NC(=O)c4cccn(-c5ccncc5)c4=O)cc3F)c2nc1OC` [Compound 229, N-[4-[(6,7-Dimethoxy-1,5-naphthyridin-4-yl)oxy]-3-fluorophenyl]-2-oxo-1-pyridin-4-ylpyridine-3-carboxamide]: the IC50 against Mer and on Met was no more than 0.1 µM in each case.
For the molecule `COc1cc2nccc(Oc3ccc(NC(=O)c4c(C)n(C)cc(-c5ccc(F)cn5)c4=O)cc3F)c2nc1OC` [Compound 71, N-[4-[(6,7-Dimethoxy-1,5-naphthyridin-4-yl)oxy]-3-fluorophenyl]-5-(5-fluoropyridin-2-yl)-1,2-dimethyl-4-oxopyridine-3-carboxamide], the IC50 at Mer and on Met was no more than 0.1 µM in each case.
Consider `COc1cc2nccc(Oc3ccc(NC(=O)c4c5n(cc(-c6ccc(C)s6)c4=O)CCOC5)cc3)c2nc1OC` [Compound 305, N-[4-[(6,7-Dimethoxy-1,5-naphthyridin-4-yl)oxy]phenyl]-7-(5-methylthiophen-2-yl)-8-oxo-3,4-dihydro-1H-pyrido[2,1-c][1,4]oxazine-9-carboxamide], for which the IC50 at Mer and at Met was no more than 0.1 µM in each case.
Regarding `COc1cc2nccc(Oc3ccc(NC(=O)c4cnc(C)c(-c5ccco5)c4O)cc3)c2nc1OC` [Compound 255, N-[4-[(6,7-Dimethoxy-1,5-naphthyridin-4-yl)oxy]phenyl]-5-(furan-2-yl)-4-hydroxy-6-methylpyridine-3-carboxamide], the IC50 against Mer and at Met was no more than 0.1 µM each time.

The values above are taken from patent US20230151003A1, “COMPOUNDS AND METHODS OF USE” (Exelixis, Inc., priority 2020, published 2023).
